{"source": "patent US10131652B2", "about": "“Pyrimidinyloxy benzene derivatives as herbicides” (E. I. DU PONT DE NEMOURS AND COMPANY, priority 2014, dated 2018)", "assay_in_all_cases": "Test D pre-/postemergence plant response", "format_in_all_cases": "in vivo", "key": {"[1]": {"tested_on": "corn (Zea mays)", "settings": "Zea mays; for Corn plant response rating (crop injury, 0 = no effect, 100 = complete kill) at 62 g/ha: 62 g ai/ha", "summary_of_the_method": "(§1)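 Sown seed (loam/sand soil) treated preemergence; emerged plants, 1- to 4-leaf stage and 2 to 18 cm, treated postemergence in peat/vermiculite medium. Greenhouse incubation 13–15 d. Endpoint: visual 0–100 rating versus untreated.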"}, "[2]": {"tested_on": "winter wheat (Triticum aestivum)", "settings": "Triticum aestivum; for plant injury at 16 g/ha: 16 g ai/ha; for plant injury at 31 g/ha: 31 g ai/ha; for plant injury at 62 g/ha: 62 g ai/ha; for plant injury at 125 g/ha: 125 g ai/ha", "summary_of_the_method": "as §1"}, "[3]": {"tested_on": "Italian ryegrass (Lolium multiflorum)", "settings": "Lolium multiflorum; for pest or weed control at 16 g/ha: 16 g ai/ha; for pest or weed control at 31 g/ha: 31 g ai/ha; for pest or weed control at 62 g/ha: 62 g ai/ha; for pest or weed control at 125 g/ha: 125 g ai/ha", "summary_of_the_method": "as §1"}, "[4]": {"tested_on": "ragweed (common ragweed, Ambrosia elatior)", "settings": "Ambrosia artemisiifolia; for pest or weed control at 16 g/ha: 16 g ai/ha; for pest or weed control at 31 g/ha: 31 g ai/ha; for pest or weed control at 62 g/ha: 62 g ai/ha; for pest or weed control at 125 g/ha: 125 g ai/ha", "summary_of_the_method": "as §1"}, "[5]": {"tested_on": "morningglory (Ipomoea coccinea)", "settings": "Ipomoea; for pest or weed control at 16 g/ha: 16 g ai/ha; for pest or weed control at 31 g/ha: 31 g ai/ha; for pest or weed control at 62 g/ha: 62 g ai/ha; for pest or weed control at 125 g/ha: 125 g ai/ha", "summary_of_the_method": "as §1"}, "[6]": {"tested_on": "galium (catchweed bedstraw, Galium aparine)", "settings": "Galium; for pest or weed control at 16 g/ha: 16 g ai/ha; for pest or weed control at 31 g/ha: 31 g ai/ha; for pest or weed control at 62 g/ha: 62 g ai/ha; for pest or weed control at 125 g/ha: 125 g ai/ha", "summary_of_the_method": "as §1"}, "[7]": {"tested_on": "soybean (Glycine max)", "settings": "Glycine max; for plant injury at 16 g/ha: 16 g ai/ha; for plant injury at 125 g/ha: 125 g ai/ha", "summary_of_the_method": "as §1"}, "[8]": {"settings": "post-emergence, Postemergence, scale 0 to 100 (0 no effect, 100 complete control), read-out: Wheat plant response rating"}, "[9]": {"settings": "post-emergence, Postemergence, scale 0 to 100, 0 no effect, 100 complete control, read-out: Plant response rating, Wheat"}, "[10]": {"settings": "pre-emergence, Preemergence, scale 0 to 100 (0 no effect, 100 complete control), read-out: Plant response rating, Wheat"}, "[11]": {"settings": "post-emergence, Postemergence, scale 0 to 100 (0 no effect, 100 complete control), read-out: Ryegrass, Italian plant response rating"}, "[12]": {"settings": "post-emergence, Postemergence, scale 0 to 100, 0 no effect, 100 complete control, read-out: Plant response rating, Ryegrass, Italian"}, "[13]": {"settings": "pre-emergence, Preemergence, scale 0 to 100 (0 no effect, 100 complete control), read-out: Plant response rating, Ryegrass, Italian"}, "[14]": {"settings": "post-emergence, Postemergence, scale 0 to 100 (0 no effect, 100 complete control), read-out: Ragweed plant response rating"}, "[15]": {"settings": "post-emergence, Postemergence, scale 0 to 100, 0 no effect, 100 complete control, read-out: Plant response rating, Ragweed"}, "[16]": {"settings": "pre-emergence, Preemergence, scale 0 to 100 (0 no effect, 100 complete control), read-out: Plant response rating, Ragweed"}, "[17]": {"settings": "post-emergence, Postemergence, scale 0 to 100 (0 no effect, 100 complete control), read-out: Morningglory plant response rating"}, "[18]": {"settings": "post-emergence, Postemergence, scale 0 to 100, 0 no effect, 100 complete control, read-out: Plant response rating, Morningglory"}, "[19]": {"settings": "pre-emergence, Preemergence, scale 0 to 100 (0 no effect, 100 complete control), read-out: Plant response rating, Morningglory"}, "[20]": {"settings": "post-emergence, Postemergence, scale 0 to 100 (0 no effect, 100 complete control), read-out: Galium plant response rating"}, "[21]": {"settings": "post-emergence, Postemergence, scale 0 to 100, 0 no effect, 100 complete control, read-out: Plant response rating, Galium"}, "[22]": {"settings": "pre-emergence, Preemergence, scale 0 to 100 (0 no effect, 100 complete control), read-out: Plant response rating, Galium"}}, "note": "Read-outs that look alike come from different tables or passages of the source."}
{"smiles": "FC(F)(F)c1cc(-c2ccccc2Oc2ncc(Cl)cn2)on1", "note": "[Compound 63, 5-chloro-2-[2-[3-(trifluoromethyl)-5-isoxazolyl]phenoxy]pyrimidine]", "values": [{"measurement": "plant injury at 16 g/ha", "setting": "[1]; post-emergence, Postemergence, 16 g ai/ha, scale 0 to 100 (0 no effect, 100 complete control), read-out: Corn plant response rating", "value": 5, "unit": "%"}, {"measurement": "plant injury at 31 g/ha", "setting": "[1]; post-emergence, Postemergence, 31 g ai/ha, scale 0 to 100 (0 no effect, 100 complete control), read-out: Corn plant response rating", "value": 5, "unit": "%"}, {"measurement": "Corn plant response rating (crop injury, 0 = no effect, 100 = complete kill) at 62 g/ha", "setting": "[1]; post-emergence, Postemergence, scale 0 to 100, 0 no effect, 100 complete control", "value": 5, "unit": "%"}, {"measurement": "Corn plant response rating (crop injury, 0 = no effect, 100 = complete kill) at 125 g/ha", "setting": "[1]; post-emergence, Postemergence, 125 g ai/ha, scale 0 to 100, 0 no effect, 100 complete control", "value": 10, "unit": "%"}, {"measurement": "plant injury at 125 g/ha", "setting": "[1]; pre-emergence, Preemergence, 125 g ai/ha, read-out: Plant response rating (scale 0 to 100), Corn", "value": 15, "unit": "%"}, {"measurement": "Corn plant response rating (crop injury, 0 = no effect, 100 = complete kill) at 16 g/ha", "setting": "[1]; pre-emergence, Preemergence, 16 g ai/ha, scale 0 to 100 (0 no effect, 100 complete control)", "value": 0, "unit": "%"}, {"measurement": "Corn plant response rating (crop injury, 0 = no effect, 100 = complete kill) at 31 g/ha", "setting": "[1]; pre-emergence, Preemergence, 31 g ai/ha, scale 0 to 100 (0 no effect, 100 complete control)", "value": 5, "unit": "%"}, {"measurement": "Corn plant response rating (crop injury, 0 = no effect, 100 = complete kill) at 62 g/ha", "setting": "[1]; pre-emergence, Preemergence, scale 0 to 100 (0 no effect, 100 complete control)", "value": 15, "unit": "%"}, {"measurement": "plant injury at 16 g/ha", "setting": "[2]; [8]", "value": 0, "unit": "%"}, {"measurement": "plant injury at 31 g/ha", "setting": "[2]; [8]", "value": 0, "unit": "%"}, {"measurement": "plant injury at 62 g/ha", "setting": "[2]; [9]", "value": 5, "unit": "%"}, {"measurement": "plant injury at 125 g/ha", "setting": "[2]; [9]", "value": 5, "unit": "%"}, {"measurement": "plant injury at 125 g/ha", "setting": "[2]; pre-emergence, Preemergence, read-out: Plant response rating (scale 0 to 100), Wheat", "value": 45, "unit": "%"}, {"measurement": "plant injury at 16 g/ha", "setting": "[2]; [10]", "value": 0, "unit": "%"}, {"measurement": "plant injury at 31 g/ha", "setting": "[2]; [10]", "value": 0, "unit": "%"}, {"measurement": "plant injury at 62 g/ha", "setting": "[2]; [10]", "value": 10, "unit": "%"}, {"measurement": "pest or weed control at 16 g/ha", "setting": "[3]; [11]", "value": 0, "unit": "%"}, {"measurement": "pest or weed control at 31 g/ha", "setting": "[3]; [11]", "value": 0, "unit": "%"}, {"measurement": "pest or weed control at 62 g/ha", "setting": "[3]; [12]", "value": 5, "unit": "%"}, {"measurement": "pest or weed control at 125 g/ha", "setting": "[3]; [12]", "value": 30, "unit": "%"}, {"measurement": "pest or weed control at 125 g/ha", "setting": "[3]; pre-emergence, Preemergence, read-out: Plant response rating (scale 0 to 100), Ryegrass, Italian", "value": 90, "unit": "%"}, {"measurement": "pest or weed control at 16 g/ha", "setting": "[3]; [13]", "value": 0, "unit": "%"}, {"measurement": "pest or weed control at 31 g/ha", "setting": "[3]; [13]", "value": 40, "unit": "%"}, {"measurement": "pest or weed control at 62 g/ha", "setting": "[3]; [13]", "value": 80, "unit": "%"}, {"measurement": "pest or weed control at 16 g/ha", "setting": "[4]; [14]", "value": 10, "unit": "%"}, {"measurement": "pest or weed control at 31 g/ha", "setting": "[4]; [14]", "value": 40, "unit": "%"}, {"measurement": "pest or weed control at 62 g/ha", "setting": "[4]; [15]", "value": 55, "unit": "%"}, {"measurement": "pest or weed control at 125 g/ha", "setting": "[4]; [15]", "value": 55, "unit": "%"}, {"measurement": "pest or weed control at 125 g/ha", "setting": "[4]; pre-emergence, Preemergence, read-out: Plant response rating (scale 0 to 100), Ragweed", "value": 70, "unit": "%"}, {"measurement": "pest or weed control at 16 g/ha", "setting": "[4]; [16]", "value": 75, "unit": "%"}, {"measurement": "pest or weed control at 31 g/ha", "setting": "[4]; [16]", "value": 20, "unit": "%"}, {"measurement": "pest or weed control at 62 g/ha", "setting": "[4]; [16]", "value": 55, "unit": "%"}, {"measurement": "pest or weed control at 16 g/ha", "setting": "[5]; [17]", "value": 50, "unit": "%"}, {"measurement": "pest or weed control at 31 g/ha", "setting": "[5]; [17]", "value": 50, "unit": "%"}, {"measurement": "pest or weed control at 62 g/ha", "setting": "[5]; [18]", "value": 98, "unit": "%"}, {"measurement": "pest or weed control at 125 g/ha", "setting": "[5]; [18]", "value": 70, "unit": "%"}, {"measurement": "pest or weed control at 125 g/ha", "setting": "[5]; pre-emergence, Preemergence, read-out: Plant response rating (scale 0 to 100), Morningglory", "value": 60, "unit": "%"}, {"measurement": "pest or weed control at 16 g/ha", "setting": "[5]; [19]", "value": 0, "unit": "%"}, {"measurement": "pest or weed control at 31 g/ha", "setting": "[5]; [19]", "value": 0, "unit": "%"}, {"measurement": "pest or weed control at 62 g/ha", "setting": "[5]; [19]", "value": 25, "unit": "%"}, {"measurement": "pest or weed control at 16 g/ha", "setting": "[6]; [20]", "value": 60, "unit": "%"}, {"measurement": "pest or weed control at 31 g/ha", "setting": "[6]; [20]", "value": 70, "unit": "%"}, {"measurement": "pest or weed control at 62 g/ha", "setting": "[6]; [21]", "value": 70, "unit": "%"}, {"measurement": "pest or weed control at 125 g/ha", "setting": "[6]; [21]", "value": 70, "unit": "%"}, {"measurement": "pest or weed control at 125 g/ha", "setting": "[6]; pre-emergence, Preemergence, read-out: Plant response rating (scale 0 to 100), Galium", "value": 98, "unit": "%"}, {"measurement": "pest or weed control at 16 g/ha", "setting": "[6]; [22]", "value": 75, "unit": "%"}, {"measurement": "pest or weed control at 31 g/ha", "setting": "[6]; [22]", "value": 98, "unit": "%"}, {"measurement": "pest or weed control at 62 g/ha", "setting": "[6]; [22]", "value": 98, "unit": "%"}, {"measurement": "plant injury at 16 g/ha", "setting": "[7]; post-emergence, Postemergence, scale 0 to 100 (0 no effect, 100 complete control), read-out: Soybean plant response rating", "value": 35, "unit": "%"}, {"measurement": "plant injury at 31 g/ha", "setting": "[7]; post-emergence, Postemergence, 31 g ai/ha, scale 0 to 100 (0 no effect, 100 complete control), read-out: Soybean plant response rating", "value": 45, "unit": "%"}, {"measurement": "plant injury at 62 g/ha", "setting": "[7]; post-emergence, Postemergence, 62 g ai/ha, scale 0 to 100, 0 no effect, 100 complete control, read-out: Plant response rating, Soybean", "value": 55, "unit": "%"}, {"measurement": "plant injury at 125 g/ha", "setting": "[7]; post-emergence, Postemergence, scale 0 to 100, 0 no effect, 100 complete control, read-out: Plant response rating, Soybean", "value": 98, "unit": "%"}, {"measurement": "plant injury at 125 g/ha", "setting": "[7]; pre-emergence, Preemergence, read-out: Plant response rating (scale 0 to 100), Soybean", "value": 60, "unit": "%"}, {"measurement": "plant injury at 16 g/ha", "setting": "[7]; pre-emergence, Preemergence, scale 0 to 100 (0 no effect, 100 complete control), read-out: Plant response rating, Soybean", "value": 5, "unit": "%"}]}
